Measured values: patent US20230301966A1, “METHOD OF ENHANCING 5-HYDROXYTRYPTOPHAN (5-HTP) EXPOSURE” (Evecxia Therapeutics, Inc., priority 2021, published 2023)
Like-named read-outs stand apart in the source and are kept apart here.

Tests used:
[1] = Single-dose pharmacokinetic evaluation of gastroretentive tablets in human healthy volunteers (Example 5); type: in vivo; conditions: plasma, oral, 250 mg, single administration, high-fat meal
Description: The “fast” 5-HTP (250 mg) / low-dose carbidopa (0.625 mg, 2.5 mg, 5 mg, or 15 mg) gastroretentive tablets were administered orally to subjects from a cohort totaling 16 healthy subjects in a 5-period open label pharmacokinetics study. The subjects’ mean age was ~50 years (33 to 60 years). All were Caucasian, 11 males, 5 females. Average weight was ~80 kg and all body mass index (BMI) < 32.0 kg/m^2. The subjects were admitted to a clinic during the study. The swelling layer of the tablets was radiolabelled with ≤1 MBq ^111In to allow for parallel scintigraphic location of the tablets in the gastrointestinal tract. The tablets were administered in the morning, one tablet per administration, after ingestion of≥80% of the breakfast. Tablets were administered with 210 mL water followed by a radiolabelled drink (radiocontrast) containing NMT 4 MBq technetium-99m-diethylene triaminepentaacetic acid (99mTc-DTPA) in 30 mL of water. […]
In the first 4 periods, the tablets were administered after a standardized FDA high-fat, high-calorie meal (FDA, 2022), in order of increasing doses of carbidopa. […] The 5-HTP and carbidopa in the plasma were analyzed by liquid-chromatography-mass spectrometry. […]
Carbidopa plasma was below lower limit of quantification (1 ng/ml) at all timepoints at the 0.625 mg carbidopa dose strength, and for most time points at the 2.5 mg carbidopa dose strength. […]

[2] = PK simulation to steady-state at twice-daily dosing by non-parametric superposition (NPS); parameters: species or system human; conditions: plasma 5-HTP, steady-state at twice-daily administration
Text: Given this T½ for 5-HTP and the known metabolism of 5-HTP by AAAD, non-parametric superpositioning (NPS) pharmacokinetic modeling can be applied to predict steady-state 5-HTP plasma exposure. NPS is an established method known in the field to generally predict steady-state plasma levels of an active pharmaceutical compound. NPS assumes that each dose of an active pharmaceutical compound is metabolized independently of other doses; that the rate and extent of absorption and average systemic clearance are the same for each dosing interval; and that linear pharmacokinetics apply. Based on NPS, the steady-state 5-HTP plasma exposure would be expected to be about 0.25-fold higher (to total about 1.25-fold) than that observed after single-administration. Further, given the T½, steady-state plasma exposure would, according to standard assumptions, be expected to be reached within 5-6 half-lives, i.e., about 1 day.
Plasma pharmacokinetics parameters were estimated using standard Phoenix WinNonlin methods. Data are presented as geometric mean ± SEM. The 5-HTP plasma profiles after single tablet administration of “fast” 5-HTP (250 mg) / low-dose carbidopa (15 mg) tablets following either an FDA high-fat high-calorie meal versus after an FDA moderate-fat, moderate-calorie meal are shown in FIG. 6B. […]

[3] = cited from earlier work
[4] = cited from earlier work; remark: listed apart in the source
[5] = Excipient compatibility of 5-HTP and carbidopa blends, storage at 40° C; type: physicochemical; conditions: for 5-HTP Impurities at T= 1 month (%) Total / Carbidopa Impurities at T= 1 month (%) Total / 5-HTP Impurities at T= 1 month (%) LSI / Carbidopa Impurities at T= 1 month (%) LSI: 1 month at 40° C; for 5-HTP Impurities at T=7 (%) Total / Carbidopa Impurities at T=7 (%) Total / 5-HTP Impurities at T=7 (%) LSI / Carbidopa Impurities at T=7 (%) LSI: 7 days at 40° C; for 5-HTP Impurities at T= 1 month (%) LSI / Carbidopa Impurities at T= 1 month (%) LSI / 5-HTP Impurities at T=7 (%) LSI / Carbidopa Impurities at T=7 (%) LSI / 5-HTP Impurities at T=0 (%) LSI / Carbidopa Impurities at T=0 (%) LSI: largest single impurity
Description: Excipient compatibility studies were performed to examine the stability of 5-HTP and carbidopa mixed together, either the two APIs alone or in the presence of one or two excipients. The stability (assay and level of impurities) was tested using small aliquots of 5-HTP (300 mg) and carbidopa (25 mg) blended together, with or without together excipients. The API/excipient ratios were based on the approximate composition of gastroretentive tablets of 5-HTP and carbidopa in Table 1. There were no significant increases in the levels of impurities for any of the API/excipient(s) combinations at T=0, 7 days and 1 month of storage at 40° C. The maximum percentage increase (largest single impurity) for carbidopa was 0.44%, 0.55%, and 0.86% at T=0, 7 days and 1 month, respectively. The maximum percentage increase for 5-HTP was 0.27%, 0.48%, and 0.49% at T=0, 7 days and 1 month, respectively.

Row | Compound | 5-HTP Impurities at T= 1 month (%) Total [5] | Carbidopa Impurities at T= 1 month (%) Total [5] | 5-HTP Impurities at T=7 (%) Total [5] | Carbidopa Impurities at T=7 (%) Total [5] | 5-HTP Impurities at T=0 (%) Total [5] | Carbidopa Impurities at T=0 (%) Total [5] | 5-HTP Impurities at T= 1 month (%) LSI [5] | Carbidopa Impurities at T= 1 month (%) LSI [5] | 5-HTP Impurities at T=7 (%) LSI [5] | Carbidopa Impurities at T=7 (%) LSI [5] | 5-HTP Impurities at T=0 (%) LSI [5] | Carbidopa Impurities at T=0 (%) LSI [5] | aqueous solubility [4] | also measured
1 | N[C@@H](Cc1c[nH]c2ccc(O)cc12)C(=O)O [Sample 5-HTP, 5-hydroxytryptophan] | – | – | – | – | – | – | – | – | – | – | – | – | ~ 15 mg/ml | half-life ([1]; read-out: Elimination half-life (Average) 5-HTP (converted)): 2.9 h; Tmax ([1]; read-out: TMax (Average) 5-HTP): 1 h; Relative steady-state average plasma exposure (average ng/ml gastroretentive /average ng/ml immediate release) [2]: 1; 5-HTP plasma exposure ([3]; 200 mg/day carbidopa with 1,150-2,900 mg/day 5-HTP, separate IR dosage forms, after 8-54 months (Magnussen and Van Woert, 1982b)): 2,000-10,000 ng/ml; Tmax ([3]; native 5-HTP immediate release): ~ 1 h; half-life T½ ([3]; native 5-HTP immediate release): ~ 2 h; oral bioavailability ([3]; native 5-HTP immediate release, one study (WO2019245925)): ~ 20%; bioavailability in the colon ([3]; one study (WO2019245925)): ~ 4%; bioavailability in the upper intestine ([3]; one study (WO2019245925)): ~ 20%
2 | C[C@@](Cc1ccc(O)c(O)c1)(NN)C(=O)O [carbidopa] | – | – | – | – | – | – | – | – | – | – | – | – | ~ 1.5 mg/ml | T½ ([3]; known value): 1 to 2 h
3 | N[C@@H](Cc1ccc(O)c(O)c1)C(=O)O [L-DOPA] | – | – | – | – | – | – | – | – | – | – | – | – | – | time for L-DOPA plasma exposure to reach steady-state ([3]; L-DOPA/carbidopa therapy, 600-1200 mg/day and 120-150 mg/day): less than 12 h

Now from value to compound, other results behind:

Row | 5-HTP Impurities at T= 1 month (%) Total [5] | Carbidopa Impurities at T= 1 month (%) Total [5] | 5-HTP Impurities at T=7 (%) Total [5] | Carbidopa Impurities at T=7 (%) Total [5] | 5-HTP Impurities at T=0 (%) Total [5] | Carbidopa Impurities at T=0 (%) Total [5] | 5-HTP Impurities at T= 1 month (%) LSI [5] | Carbidopa Impurities at T= 1 month (%) LSI [5] | 5-HTP Impurities at T=7 (%) LSI [5] | Carbidopa Impurities at T=7 (%) LSI [5] | 5-HTP Impurities at T=0 (%) LSI [5] | Carbidopa Impurities at T=0 (%) LSI [5] | Compound | aqueous solubility [4] | also measured
4 | 0.00% | 0.79% | 0.00% | 0.45% | 0.00% | 0.41% | 0.00% | 0.27% | 0.00% | 0.28% | 0.00% | 0.27% | C[C@@](Cc1ccc(O)c(O)c1)(NN)C(=O)O [Sample 18, Carbidopa (control)] | – | –
5 | 0.26% | 0.00% | 0.23% | 0.00% | 0.23% | 0.00% | 0.12% | 0.00% | 0.12% | 0.00% | 0.13% | 0.00% | N[C@@H](Cc1c[nH]c2ccc(O)cc12)C(=O)O [Sample 17, 5-HTP (control)] | – | –
